Results taken from ChEMBL document CHEMBL2176899, “Structure-activity relationships and blood distribution of antiplasmodial aminopeptidase-1 inhibitors” (J Med Chem, 2012).
pIC50: −log10 of the molar value. Values after ≈ are worked out from the molar mass of the structure shown. Active and inactive are the calls of the source. The rule behind the calls is not given here.

Key:
[1] = Inhibition of Plasmodium falciparum AM1 using Leu-pNA as substrate preincubated for 10 mins
[2] = test system: MRC5; test: Cytotoxicity against human MRC5 SV2 cells after 72 hrs by resazurin fluorimetric analysis; type: cell-based; details: MRC5, 72 h
[3] = target: T1, Aminopeptidase N (Sus scrofa, UniProt P15145); test: Inhibition of porcine kidney microsomal neutral aminopeptidase using Leu-pNA as substrate preincubated for 10 mins
T1 sequence (P15145 whole entry): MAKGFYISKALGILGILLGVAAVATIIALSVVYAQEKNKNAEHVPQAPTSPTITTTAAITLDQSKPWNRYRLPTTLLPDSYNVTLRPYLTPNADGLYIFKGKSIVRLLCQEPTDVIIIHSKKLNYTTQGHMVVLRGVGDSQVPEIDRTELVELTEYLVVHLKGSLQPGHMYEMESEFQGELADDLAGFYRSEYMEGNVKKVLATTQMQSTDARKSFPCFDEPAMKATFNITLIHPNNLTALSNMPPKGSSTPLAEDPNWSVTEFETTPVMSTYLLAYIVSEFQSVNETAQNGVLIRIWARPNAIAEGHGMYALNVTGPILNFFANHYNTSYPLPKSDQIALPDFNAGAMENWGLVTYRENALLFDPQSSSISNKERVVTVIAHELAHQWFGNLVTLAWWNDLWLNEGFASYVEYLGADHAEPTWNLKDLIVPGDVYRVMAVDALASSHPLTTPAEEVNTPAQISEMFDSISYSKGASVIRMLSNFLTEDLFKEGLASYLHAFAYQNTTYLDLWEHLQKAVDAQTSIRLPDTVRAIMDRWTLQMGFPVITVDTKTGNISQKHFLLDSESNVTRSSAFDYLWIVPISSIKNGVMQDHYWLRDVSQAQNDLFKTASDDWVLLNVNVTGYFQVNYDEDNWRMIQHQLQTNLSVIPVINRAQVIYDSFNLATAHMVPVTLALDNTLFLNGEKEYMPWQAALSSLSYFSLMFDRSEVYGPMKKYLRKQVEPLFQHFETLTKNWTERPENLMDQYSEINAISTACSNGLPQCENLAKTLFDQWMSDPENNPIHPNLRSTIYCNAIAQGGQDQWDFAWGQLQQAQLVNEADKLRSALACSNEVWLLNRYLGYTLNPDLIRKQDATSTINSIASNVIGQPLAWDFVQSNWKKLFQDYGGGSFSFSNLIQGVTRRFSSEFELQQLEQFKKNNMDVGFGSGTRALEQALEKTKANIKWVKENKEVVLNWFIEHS

[4] = test system: Plasmodium falciparum; test: microbe, parasite or virus in culture; details: K1, 72 h
Description: Antimalarial activity against Plasmodium falciparum K1 infected in human O positive erythrocytes under low oxygen atmosphere after 72 hrs by spectrophotometric analysis

[5] = Partition coefficient, log D of the compound in octanol-phosphate buffer at pH 7.4; type: physicochemical
[6] = Half life in human plasma; type: ADME, cell-free
[7] = Solubility of the compound in PBS at pH 7.4 after 24 hrs; type: physicochemical
[8] = Half life in rat plasma; type: ADME, cell-free
[9] = Elimination half life in CD1 mouse RBC at 50 mg/kg, ip; type: ADME, organism-based, Erythrocyte; parameters: dose 50 mg/kg, route intraperitoneal; details: red blood cells, read-out: beta t1/2 (converted)
[10] = AUC (0 to last) in CD1 mouse plasma at 50 mg/kg, ip; type: ADME, organism-based; parameters: time 0 - last, dose 50 mg/kg, route intraperitoneal
[11] = test system: Liver; test: Metabolic stability in mouse liver microsomes at 1 uM after 30 mins; type: ADME, Microsome; details: 0.5 h
[12] = AUC (0 to infinity) in CD1 mouse plasma at 50 mg/kg, ip; type: ADME, organism-based; parameters: time infinity, dose 50 mg/kg, route intraperitoneal
[13] = Elimination half life in CD1 mouse plasma at 50 mg/kg, ip; type: ADME, organism-based; parameters: dose 50 mg/kg, route intraperitoneal; details: read-out: beta t1/2 (converted)
[14] = Drug metabolism assessed as N-(4-Fluorobenzyl)-N'-hydroxy-2-[1-phenylmeth-(E)-ylidene]malonamide fromation through GSH-adduct at 1 uM up to 60 mins; details: 1 h
[15] = AUC (0 to infinity) in CD1 mouse RBC at 50 mg/kg, ip; type: ADME, organism-based, Erythrocyte; parameters: time infinity, dose 50 mg/kg, route intraperitoneal; details: in vivo
[16] = test system: Plasma; test: Tlast in CD1 mouse plasma at 50 mg/kg, ip; type: ADME, organism-based; parameters: dose 50 mg/kg, route intraperitoneal; details: in vivo
[17] = Metabolic stability in CD1 mouse RBC assessed as N-(4-Fluorobenzyl)-N'-hydroxy-2-[1-phenylmeth-(E)-ylidene]malonamide fromation through GSH-adduct at 50 mg/kg, ip; type: ADME, organism-based, Erythrocyte; parameters: dose 50 mg/kg, route intraperitoneal; details: in vivo
[18] = test system: Plasma; test: Metabolic stability in CD1 mouse plasma assessed as N-(4-Fluorobenzyl)-N'-hydroxy-2-[1-phenylmeth-(E)-ylidene]malonamide fromation through GSH-adduct at 50 mg/kg, ip; type: ADME, organism-based; parameters: dose 50 mg/kg, route intraperitoneal; details: in vivo
[19] = AUC (0 to last) in CD1 mouse RBC at 50 mg/kg, ip; type: ADME, organism-based, Erythrocyte; parameters: dose 50 mg/kg, route intraperitoneal, time 0 - last; details: red blood cells
[20] = target: Carbonic anhydrase 2 (Homo sapiens) (UniProt P00918); test: Inhibition of human erythrocyte carbonic anhydrase-2 assessed as hydrolysis of 4-nitrophenylacetate at 1 to 50 uM
[21] = test system: Plasmodium falciparum; test: microbe, parasite or virus in culture; details: 3D7, 72 h
Description: Antimalarial activity against Plasmodium falciparum 3D7 infected in human O positive erythrocytes under low oxygen atmosphere after 72 hrs by spectrophotometric analysis

Row | pIC50 [1] | pIC50 [3] | pIC50 [4] | SMILES | pIC50 [2] | also measured
1 | 6.68 | 5.63 | 4.61 | O=C(NO)C(Cc1ccccc1)C(=O)NCc1cccc(F)c1 (centres undefined) | < 4.19 | 
2 | 6.90 | < 5.00 |  | O=C(NO)C(Cc1ccccc1)C(=O)NCc1ccccc1 (centres undefined) |  | 
3 | 7.16 | 5.62 |  | O=C(NO)/C(=C\c1ccc(F)cc1)C(=O)NCc1ccccc1 |  | 
4 | 7.37 | 5.38 | 4.52 | O=C(NO)/C(=C\c1ccc(F)cc1)C(=O)NCc1ccc(F)cc1 | 4.49 | logD [5]: 1.7; half-life [6]: > 24 h; solubility at 24 h [7]: 190 µM (≈ 63.1 µg/mL); half-life [8]: 3 h
5 | 5.98 | 5.34 | < 4.19 | O=C(NO)C(Cc1ccccc1)C(=O)NCc1ccncc1 (centres undefined) | < 4.19 | 
6 | 6.59 | 5.65 | 4.42 | O=C(NO)C(Cc1ccccc1)C(=O)NCc1ccccc1F (centres undefined) | < 4.19 | 
7 |  |  |  | CC(C)C[C@H](NC(=O)[C@@H](O)[C@H](N)Cc1ccccc1)C(=O)O [UBENIMEX] |  | pIC50 [21]: 5.10
8 | 6.59 | 5.40 | 4.38 | O=C(NO)C(Cc1ccc(F)cc1)C(=O)NCc1ccc(F)cc1 (centres undefined) | < 4.19 | 
9 | 6.36 | 5.70 |  | O=C(NO)/C(=C\c1ccccc1)C(=O)NCc1ccncc1 |  | 
10 |  |  |  | NC(CCc1ccccc1)P(=O)(O)CC(Cc1ccccc1)C(=O)O (centres undefined) |  | pIC50 [21]: 4.62
11 | 6.48 | < 5.00 |  | O=C(NO)/C(=C/c1ccccc1)C(=O)NCc1ccc(F)cc1 |  | 
12 | 6.51 | 5.88 | 4.44 | O=C(NO)C(Cc1ccc(F)cc1)C(=O)NCc1ccccc1 (centres undefined) | < 4.19 | 
13 | 7.25 | < 5.00 | 4.30 | CC(Cc1ccccc1)(C(=O)NO)C(=O)NCc1ccc(F)cc1 (centres undefined) | < 4.19 | 

Row | SMILES | pIC50 [1] | pIC50 [3] | pIC50 [4] | pIC50 [2] | also measured
14 | O=C(NO)/C(=C\c1ccccc1)C(=O)NCc1ccc(F)cc1 | 8.22 |  | 4.96 | 4.49 | half-life [9]: 1.5 h; AUC(0-t) [10]: 66 µM·h; Stability [11]: Stable; AUC(0-inf) [12]: 68 µM·h; half-life [13]: 1 h; Drug metabolism [14]: Active; AUC [15]: 98 µM·h; Tlast [16]: 6 h; Stability [17]: Stable; half-life [6]: > 24 h; Stability [18]: Stable; AUC(0-t) [19]: 90 µM·h; inhibition [20]: inactive
15 | O=C(NO)C(Cc1ccccc1)C(=O)NCc1ccc(F)cc1 (centres undefined) | 7.57 |  | 4.76 | < 4.19 | half-life [6]: > 24 h; solubility at 24 h [7]: > 200 µM; half-life [8]: 0.8 h
